Measurements: US10828317B2, “Method of treating bacterial infections” (priority 2016, dated 2020)
Where two headings read alike, the source gives them in different places.

How the values were obtained:
S. marescens EN0454 = assay: MIC; assay type: cell-based, Serratia marescens; conditions: Serratia, read-out: MIC
M. luteus EN0455 = assay: MIC; assay type: cell-based, Micrococcus luteus; conditions: Micrococcus luteus, read-out: MIC
P. mirabilis EN0457 = assay: MIC; assay type: cell-based, Proteus mirabilis; conditions: Proteus mirabilis, read-out: MIC
P. aeruginosa EN0459 = assay: MIC; assay type: cell-based, Pseudomonas aeruginosa; conditions: Pseudomonas aeruginosa, read-out: MIC
P. aeruginosa EN0460 = assay: MIC; assay type: cell-based, Pseudomonas aeruginosa; conditions: Pseudomonas aeruginosa, read-out: MIC
E. aerogenes EN0461 = assay: MIC; assay type: cell-based, Enterobacter aerogenes; conditions: Klebsiella aerogenes, read-out: MIC
K. pneumoniae EN0463 = assay: MIC; assay type: cell-based, Klebsiella pneumoniae; conditions: Klebsiella pneumoniae, read-out: MIC
S. epidermidis EN0456 = assay: MIC; assay type: cell-based, Staphylococcus epidermidis; conditions: Staphylococcus epidermidis, read-out: MIC
Citrobacter sp. EN0465 = assay: MIC; assay type: cell-based; conditions: Citrobacter, read-out: MIC
[1] = tested on: A. pittii or A. nosocomialis EN0180; assay: MIC; assay type: cell-based, Acinetobacter pittii or nosocomialis; conditions: read-out: MIC
P. aeruginosa EN0422 = assay: MIC; assay type: cell-based, Pseudomonas aeruginosa; conditions: Pseudomonas aeruginosa, read-out: MIC
P. mirabilis ST19 EN0445 = assay: MIC; assay type: cell-based, Proteus mirabilis; conditions: Proteus mirabilis, read-out: MIC
E. coli EN001 = assay: MIC, WT (EN001 = EN0001, ATCC 25922); assay type: cell-based, Escherichia coli; conditions: Escherichia coli, read-out: MIC

O=c1ccn([C@@H]2O[C@H](CO)[C@@H](O)[C@H]2O)c(=O)[nH]1 [Uridine, uridine]
MIC (S. marescens EN0454; EN0454, Combination 1 AZT+trimethoprim+uridine, Table 16): > 400 µg/mL
MIC (S. marescens EN0454; EN0454, Combination 2 AZT+trimethoprim+uridine+thymidine, Table 16): > 400 µg/mL
MIC (S. marescens EN0454; EN0454, combination didanosine+trimethoprim+uridine, Table 10): > 400 µg/mL
MIC (M. luteus EN0455; EN0455, Combination 1 AZT+trimethoprim+uridine, Table 16): 200 µg/mL
MIC (M. luteus EN0455; EN0455, Combination 2 AZT+trimethoprim+uridine+thymidine, Table 16): > 400 µg/mL
MIC (M. luteus EN0455; EN0455, combination AZT+trimethoprim+uridine, Table 6): 500 µg/mL
MIC (M. luteus EN0455; EN0455, combination FdUrd+trimethoprim+uridine, Table 8): 200 µg/mL
MIC (M. luteus EN0455; EN0455, combination didanosine+trimethoprim+uridine, Table 10): 200 µg/mL
MIC (P. mirabilis EN0457; EN0457, Combination 1 AZT+trimethoprim+uridine, Table 16): 200 µg/mL
MIC (P. mirabilis EN0457; EN0457, Combination 2 AZT+trimethoprim+uridine+thymidine, Table 16): > 400 µg/mL
MIC (P. mirabilis EN0457; EN0457, combination AZT+trimethoprim+uridine, Table 6): 500 µg/mL
MIC (P. aeruginosa EN0459; EN0459, Combination 1 AZT+trimethoprim+uridine, Table 16): > 400 µg/mL
MIC (P. aeruginosa EN0459; EN0459, Combination 2 AZT+trimethoprim+uridine+thymidine, Table 16): > 400 µg/mL
MIC (P. aeruginosa EN0459; EN0459, combination AZT+trimethoprim+uridine, Table 6): > 1000 µg/mL
MIC (P. aeruginosa EN0459; EN0459, combination FdUrd+trimethoprim+uridine, Table 8): > 400 µg/mL
MIC (P. aeruginosa EN0459; EN0459, combination didanosine+trimethoprim+uridine, Table 10): > 400 µg/mL
MIC (P. aeruginosa EN0460; EN0460, Combination 1 AZT+trimethoprim+uridine, Table 16): > 400 µg/mL
MIC (P. aeruginosa EN0460; EN0460, Combination 2 AZT+trimethoprim+uridine+thymidine, Table 16): > 400 µg/mL
MIC (P. aeruginosa EN0460; EN0460, combination AZT+trimethoprim+uridine, Table 6): > 1000 µg/mL
MIC (P. aeruginosa EN0460; EN0460, combination FdUrd+trimethoprim+uridine, Table 8): > 400 µg/mL
MIC (P. aeruginosa EN0460; EN0460, combination didanosine+trimethoprim+uridine, Table 10): > 400 µg/mL
MIC (E. aerogenes EN0461; EN0461, Combination 2 AZT+trimethoprim+uridine+thymidine, Table 16): 200 µg/mL
MIC (E. aerogenes EN0461; EN0461, combination AZT+trimethoprim+uridine, Table 6): 60 µg/mL
MIC (K. pneumoniae EN0463; EN0463, Combination 1 AZT+trimethoprim+uridine, Table 16): 12.5 µg/mL
MIC (K. pneumoniae EN0463; EN0463, combination AZT+trimethoprim+uridine, Table 6): 16 µg/mL
MIC (S. epidermidis EN0456; EN0456, Combination 1 AZT+trimethoprim+uridine, Table 16): 66.4 µg/mL
MIC (S. epidermidis EN0456; EN0456, Combination 2 AZT+trimethoprim+uridine+thymidine, Table 16): 200 µg/mL
MIC (S. epidermidis EN0456; EN0456, combination AZT+trimethoprim+uridine, Table 6): 16 µg/mL
MIC (S. epidermidis EN0456; EN0456, combination FdUrd+trimethoprim+uridine, Table 8): < 0.8 µg/mL
MIC (S. epidermidis EN0456; EN0456, combination didanosine+trimethoprim+uridine, Table 10): 6 µg/mL
MIC (Citrobacter sp. EN0465; SP.EN0465, Combination 1 AZT+trimethoprim+uridine, Table 16): > 400 µg/mL
MIC (Citrobacter sp. EN0465; SP.EN0465, Combination 2 AZT+trimethoprim+uridine+thymidine, Table 16): > 400 µg/mL
MIC (Citrobacter sp. EN0465; SP.EN0465, combination AZT+trimethoprim+uridine, Table 6): > 1000 µg/mL
MIC (Citrobacter sp. EN0465; SP.EN0465, combination FdUrd+trimethoprim+uridine, Table 8): > 400 µg/mL
MIC (Citrobacter sp. EN0465; SP.EN0465, combination didanosine+trimethoprim+uridine, Table 10): > 400 µg/mL
MIC ([1]; Combination 1 AZT+trimethoprim+uridine, Table 16): > 400 µg/mL
MIC ([1]; Combination 2 AZT+trimethoprim+uridine+thymidine, Table 16): > 400 µg/mL
MIC ([1]; combination AZT+trimethoprim+uridine, Table 6): > 1000 µg/mL
MIC ([1]; combination FdUrd+trimethoprim+uridine, Table 8): 400 µg/mL
MIC ([1]; combination didanosine+trimethoprim+uridine, Table 10): > 400 µg/mL
MIC (P. aeruginosa EN0422; EN0422, Combination 1 AZT+trimethoprim+uridine, Table 16): > 400 µg/mL
MIC (P. aeruginosa EN0422; EN0422, Combination 2 AZT+trimethoprim+uridine+thymidine, Table 16): > 400 µg/mL
MIC (P. aeruginosa EN0422; EN0422, combination AZT+trimethoprim+uridine, Table 6): > 1000 µg/mL
MIC (P. aeruginosa EN0422; EN0422, combination FdUrd+trimethoprim+uridine, Table 8): > 400 µg/mL
MIC (P. aeruginosa EN0422; EN0422, combination didanosine+trimethoprim+uridine, Table 10): > 400 µg/mL
MIC (P. mirabilis ST19 EN0445; ST19EN0445, Combination 2 AZT+trimethoprim+uridine+thymidine, Table 16): > 400 µg/mL
MIC (P. mirabilis ST19 EN0445; ST19EN0445, combination AZT+trimethoprim+uridine, Table 6): > 1000 µg/mL
MIC (E. coli EN001; EN001, Combination 1 AZT+trimethoprim+uridine, Table 16): 6.4 µg/mL
MIC (E. coli EN001; EN001, combination AZT+trimethoprim+uridine, Table 6): 16 µg/mL
